In patent US11339193B2, “CDP protein secretion inhibitors” (KEZAR LIFE SCIENCES, priority 2018, dated 2022):
Numbered stars: 1 amine (or outer) side, 2 acyl side, 3 side chain; on linkers, the order of the positions; unused ones are H or OH. Square brackets hold non-standard residues; d marks the D form. Peptide text beside a SMILES is read from it. Butanoyl(2R-oxy,4-CN) = N#CCC[C@@H](O)C(=O)O; X22 = CCCC[C@@H](C)C[C@H](N[*:1])C(=O)[*:2]; Abu(4,4,4-F3) = N[C@@H](CC(F)(F)F)C(=O)O; NMeAla(cPent) = CN[C@@H](CC1CCCC1)C(=O)O; Ala(cPent) = N[C@@H](CC1CCCC1)C(=O)O; NMeCha = CN[C@@H](CC1CCCCC1)C(=O)O; NMeF = CN[C@@H](Cc1ccccc1)C(=O)O; tBuAla = CC(C)(C)C[C@H](N)C(=O)O; NMeL = CN[C@@H](CC(C)C)C(=O)O; NMeA = CN[C@@H](C)C(=O)O; Nva = CCC[C@H](N)C(=O)O; dLac = C[C@@H](O)C(=O)O; Abu = CC[C@H](N)C(=O)O

Experiments:
Assay type in all cases: cell-based
[1] = tested on: PD1-ss+10aa/Gaussia Luciferase; assay: Dox induced PD1-ss-Gluc assay; details: Flp-In 293 T-REx cells, doxycycline, 24 hours; read-out: PD1ss Gluc IC50
Excerpt: Dox Induced PD1-ss-Gluc Assay
Flp-In 293 T-REx™ cells were transfected with pcDNA™5/FRT/TO plasmid inserted with cDNA encoding Gaussia Luciferase fused to the 3′ end of cDNA encoding PD1 signal sequence plus 10 amino acids (N-[…]-C) (SEQ ID NO:3). Transfected cells were selected for resistance to the selectable markers Hygromycin and Blasticidin to create a stable cell line that contained the PD1-ss+10aa/Gaussia Luciferase cDNA insert whose expression was regulated under the T-REx™ system. The day before assay, cells were trypsinized and plated in 384-well tissue culture plates. The next day, compound dilutions in DMSO/media containing doxycycline were added to the wells and incubated at 37° C., 5% CO2.

[2] = tested on: TNFα-FL/Gaussia Luciferase; assay: Dox induced TNFα-FL-Gluc assay; details: Flp-In 293 T-REx cells, doxycycline, 24 hours; read-out: TNFa FL Gluc IC50
Excerpt: Dox Induced TNFα-FL-Gluc Assay
Flp-In 293 T-REx™ cells were transfected with pcDNA™5/FRT/TO plasmid inserted with cDNA encoding Gaussia Luciferase fused to the 3′ end of cDNA encoding full length TNFα (amino acids 1-233). Transfected cells were selected for resistance to the selectable markers Hygromycin and Blasticidin to create a stable cell line that contained the TNFα-FL/Gaussia Luciferase cDNA insert whose expression was regulated under the T-REx™ system. The day before assay, cells were trypsinized and plated in 384-well tissue culture plates. The next day, compound dilutions in DMSO/media containing doxycycline were added to the wells and incubated at 37° C., 5% CO2.

[3] = tested on: NCI-H929 multiple myeloma cell line; assay: H929 assay (cell viability, Celltiter-Glo); details: Homo sapiens, NCI-H929; 48 hours, cell viability; read-out: H929 EC50
Description: The human multiple myeloma cell line NCI-H929 was cultured in Advanced RPMI 1640 media (Gibco@) supplemented with 6% fetal bovine serum, 2 mM Glutamine, and 1× Penicillin/Streptomycin. On the day of assay, cells were resuspended in RPMI 1640 media supplemented with 10% fetal bovine serum, 2 mM Glutamine, and 1× Penicillin/Streptmycin and plated in 384-well tissue culture plates and treated with compound dilutions in DMSO/media. Plates were incubated at 37° C., 5% CO2 for 48 hours. After 48 hours, Celltiter-Glo@ (Promega) was added to each well and luciferase signal was quantified using Tecan Infinite M1000 Pro for cell viability determination.

| Structure (SMILES) | IC50 [1] [nM] | IC50 [2] [nM] | EC50 [3] [nM] |
| --- | --- | --- | --- |
| CCCC[C@@H](C)C[C@@H]1NC(=O)[C@H](CC2CCCCC2)N(C)C(=O)[C@H](CC(C)C)NC(=O)[C@H](CC(C)C)N(C)C(=O)[C@H](CC(C)(C)C)NC(=O)C(CCC#N)OC(=O)[C@H](C)N(C)C1=O (stereo in doubt) [C-52] | 751 | 5730 | – |
| CCCC[C@@H](C)C[C@@H]1NC(=O)[C@@H](C)OC(=O)[C@H](C)N(C)C(=O)[C@H](C(C)C)NC(=O)[C@H](Cc2ccccc2)N(C)C(=O)[C@H](CC(C)C)NC(=O)[C@H](CC(C)C)N(C)C1=O [C-02] (HELM PEPTIDE1{L.[meF].V.[meA].[C[C@@H](O[*:1])C(=O)[*:2]].[CCCC[C@@H](C)C[C@H](N[*:1])C(=O)[*:2]].[meL]}$PEPTIDE1,PEPTIDE1,1:R1-7:R2$$$V2.0) | 460 | 779 | 4060 |
| CCCC[C@@H](C)C[C@@H]1NC(=O)[C@H](Cc2ccccc2)N(C)C(=O)[C@H](CC(C)C)NC(=O)[C@H](CC(C)C)N(C)C(=O)[C@H](CC(F)(F)F)NC(=O)[C@@H](C)OC(=O)[C@H](C)N(C)C1=O [C-03] (cyclo(L[NMeF][X22][NMeA][dLac][Abu(4,4,4-F3)][NMeL])) | 385 | 525 | 5070 |
| CCCC[C@@H](C)C[C@@H]1NC(=O)[C@H](Cc2ccccc2)N(C)C(=O)[C@H](CCC)NC(=O)[C@H](CC(C)C)N(C)C(=O)[C@H](C[C@H](C)CCCC)NC(=O)[C@@H](C)OC(=O)[C@H](C)N(C)C1=O [C-04] (cyclo([NMeA][dLac][X22][NMeL][Nva][NMeF][X22])) | 86 | 104 | 1260 |
| CCCC[C@@H](C)C[C@@H]1NC(=O)[C@H](Cc2ccccc2)N(C)C(=O)[C@H](CC)NC(=O)[C@H](CC(C)C)N(C)C(=O)[C@H](C[C@H](C)CCCC)NC(=O)[C@@H](C)OC(=O)[C@H](C)N(C)C1=O [C-05] (cyclo([Abu][NMeF][X22][NMeA][dLac][X22][NMeL])) | 75 | 115 | 1190 |
| CCCC[C@@H](C)C[C@@H]1NC(=O)[C@H](Cc2ccccc2)N(C)C(=O)[C@H](CC(C)C)NC(=O)[C@H](CC(C)C)N(C)C(=O)[C@H](CC)NC(=O)[C@@H](C)OC(=O)[C@H](C)N(C)C1=O [C-06] (HELM PEPTIDE1{[Abu].[meL].L.[meF].[CCCC[C@@H](C)C[C@H](N[*:1])C(=O)[*:2]].[meA].[C[C@@H](O[*:1])C(=O)[*:2]]}$PEPTIDE1,PEPTIDE1,1:R1-7:R2$$$V2.0) | – | – | 6710 |
| CCCC[C@@H](C)C[C@@H]1NC(=O)[C@H](Cc2ccccc2)N(C)C(=O)[C@H](CC(C)C)NC(=O)[C@H](CC(C)C)N(C)C(=O)[C@H](C(C)C)NC(=O)[C@@H](C)OC(=O)[C@H](C)N(C)C1=O [C-07] (HELM PEPTIDE1{L.[meF].[CCCC[C@@H](C)C[C@H](N[*:1])C(=O)[*:2]].[meA].[C[C@@H](O[*:1])C(=O)[*:2]].V.[meL]}$PEPTIDE1,PEPTIDE1,1:R1-7:R2$$$V2.0) | 656 | 1260 | 5550 |
| CCCC[C@@H](C)C[C@@H]1NC(=O)[C@H](Cc2ccccc2)N(C)C(=O)[C@H](CC(C)C)NC(=O)[C@H](CC(C)C)N(C)C(=O)[C@H](CC(C)C)NC(=O)[C@@H](C)OC(=O)[C@H](C)N(C)C1=O [C-08] (HELM PEPTIDE1{L.[meF].[CCCC[C@@H](C)C[C@H](N[*:1])C(=O)[*:2]].[meA].[C[C@@H](O[*:1])C(=O)[*:2]].L.[meL]}$PEPTIDE1,PEPTIDE1,1:R1-7:R2$$$V2.0) | 360 | 526 | 4460 |
| CCCC[C@@H](C)C[C@@H]1NC(=O)[C@H](Cc2ccccc2)N(C)C(=O)[C@H](CC(C)C)NC(=O)[C@H](CC(C)C)N(C)C(=O)[C@H](CC(F)(F)F)NC(=O)[C@@H](CCC#N)OC(=O)[C@H](C)N(C)C1=O [C-09] (cyclo(L[NMeF][X22][NMeA][Butanoyl(2R-oxy,4-CN)][Abu(4,4,4-F3)][NMeL])) | 114 | 158 | 1820 |
| CCCC[C@@H](C)C[C@@H]1NC(=O)[C@H](CC2CCCCC2)N(C)C(=O)[C@H](CC(C)C)NC(=O)[C@H](CC(C)C)N(C)C(=O)[C@H](C[C@H](C)CCCC)NC(=O)[C@@H](CCC#N)OC(=O)[C@H](C)N(C)C1=O [C-18] (cyclo(L[NMeCha][X22][NMeA][Butanoyl(2R-oxy,4-CN)][X22][NMeL])) | 37 | 84 | 429 |
| CCCC[C@@H](C)C[C@@H]1NC(=O)[C@H](CC2CCCCC2)N(C)C(=O)[C@H](CC(C)C)NC(=O)[C@H](CC(C)C)N(C)C(=O)[C@H](CCC)NC(=O)[C@@H](CCC#N)OC(=O)[C@H](C)N(C)C1=O [C-19] (cyclo(L[NMeCha][X22][NMeA][Butanoyl(2R-oxy,4-CN)][Nva][NMeL])) | 374 | 1390 | 5150 |
| CCCC[C@@H](C)C[C@@H]1NC(=O)[C@H](CC2CCCCC2)N(C)C(=O)[C@H](CC(C)C)NC(=O)[C@H](CC(C)C)N(C)C(=O)[C@H](C(C)C)NC(=O)[C@@H](CCC#N)OC(=O)[C@H](C)N(C)C1=O [C-20] (cyclo(L[NMeCha][X22][NMeA][Butanoyl(2R-oxy,4-CN)]V[NMeL])) | 432 | 1680 | 5300 |
| CCCC[C@@H](C)C[C@@H]1NC(=O)[C@H](CC2CCCCC2)N(C)C(=O)[C@H](CC(C)C)NC(=O)[C@H](CC(C)C)N(C)C(=O)[C@H](CC(C)C)NC(=O)[C@@H](CCC#N)OC(=O)[C@H](C)N(C)C1=O [C-21] (cyclo(L[NMeCha][X22][NMeA][Butanoyl(2R-oxy,4-CN)]L[NMeL])) | 212 | 716 | 3400 |
| CCCC[C@@H](C)C[C@@H]1NC(=O)[C@H](CC2CCCC2)N(C)C(=O)[C@H](CC(C)C)NC(=O)[C@H](CC(C)C)N(C)C(=O)[C@H](C[C@H](C)CCCC)NC(=O)[C@@H](CCC#N)OC(=O)[C@H](C)N(C)C1=O [C-22] (cyclo(L[NMeAla(cPent)][X22][NMeA][Butanoyl(2R-oxy,4-CN)][X22][NMeL])) | 115 | 236 | 950 |
| CCCC[C@@H](C)C[C@@H]1NC(=O)[C@H](CC2CCCCC2)N(C)C(=O)[C@H](CC2CCCC2)NC(=O)[C@H](CC(C)C)N(C)C(=O)[C@H](CC(C)C)NC(=O)[C@@H](CCC#N)OC(=O)[C@H](C)N(C)C1=O [C-54] (cyclo([Ala(cPent)][NMeCha][X22][NMeA][Butanoyl(2R-oxy,4-CN)]L[NMeL])) | 2140 | – | – |
| CCCC[C@@H](C)C[C@@H]1NC(=O)[C@H](CC2CCCCC2)N(C)C(=O)[C@H](CC(C)(C)C)NC(=O)[C@H](CC(C)C)N(C)C(=O)[C@H](CC(C)C)NC(=O)[C@@H](CCC#N)OC(=O)[C@H](C)N(C)C1=O [C-63] (cyclo(L[NMeL][tBuAla][NMeCha][X22][NMeA][Butanoyl(2R-oxy,4-CN)])) | 3050 | – | – |
| CC(C)C[C@@H]1NC(=O)[C@H](Cc2nc(C(C)(C)C)cs2)N(C)C(=O)[C@H](CC(C)C)NC(=O)[C@H](CC(C)C)N(C)C(=O)[C@H](CC(C)C)NC(=O)[C@@H](CCC#N)OC(=O)[C@H](C)N(C)C1=O [C-68] (HELM PEPTIDE1{L.[meA].[N#CCC[C@@H](O[*:1])C(=O)[*:2]].L.[meL].L.[CN([C@@H](Cc1nc(C(C)(C)C)cs1)C(=O)[*:2])[*:1]]}$PEPTIDE1,PEPTIDE1,1:R1-7:R2$$$V2.0) | 1060 | – | 11200 |
